Measurements taken from patent US7517902B2, “Substituted indazoles, compositions containing the same, and the preparation and use thereof” (Aventis Pharma S.A., priority 2004, dated 2009).

Target: T1, CDK4/cyclin D1 kinase complex (Homo sapiens, UniProt P11802)
T1 construct: HA (Hemagglutinin tag) (C); made in house; host or cells: Sf9 insect cells (baculovirus co-infection)
Assay: CDK4/cyclinD1 Flashplate assay in 96-well format
Type: biochemical
Conditions: read-out: IC 50 CDK4
Description: Purification of the CDK4-HA/cyclin D1-(His)6 complex by IMAC (Immobilized Metal Affinity Chromatography):
Two recombinant baculoviruses carrying the human sequences coding respectively for CDK4-HA (C-terminal fusion with the Hemagglutinin tag) and for cyclin D1-(His)6 are used to co-infect Sf9 insect cells. Sixty hours after the beginning of co-infection, the cells are harvested by centrifugation and then frozen at −20° C. until their use. After thawing in buffer A (HEPES 200 mM pH 7.0, NaCl 50 mM, MgCl2 2 mM, imidazole 25 mM, TCEP 1 mM, glycerol 10% (w/v), NaF 1 mM, Na3VO4 1 mM), stirring at 4° C. for 1 h, and centrifugation, the complex present in the lysis supernatant is purified by affinity chromatography on nickel (IMAC) and stored at −80° C.
CDK4/cyclinD1 Flashplate Assay in 96-Well Format.
An assay in 96-well “Flashplate” (scintillation plate) plates coated with streptavidin is used to evaluate the inhibition of the CDK4/cyclin D1 kinase complex by the products of the invention. To perform this test, the biotinylated peptide substrate, a fragment of the pRb protein, (biotinyl-[…]-amide), is dissolved at a concentration of 2 mM in kinase buffer (HEPES/NaOH 50 mM, NaCl 1 mM, MgCl2 5 mM, pH=7.5) to form a stock solution, which is stored at −20° C. in the form of 110 μl aliquots. On the day of the experiment, an aliquot of this solution is thawed and diluted in kinase buffer containing 1 mM of dithiothreitol, added at the time of use, so as to give a final peptide concentration of 2.571 μM. seventy μl of this solution are deposited in each well of the Flashplate plate, to give a final substrate concentration of 1.8 μM during the enzymatic reaction, which is performed in a final volume of 100 μl (cf. below). Intermediate dilutions of inhibitors (products of the invention) at various concentrations are prepared in DMSO from 10 mM stock solutions in separate tubes. In this way dilutions at 1000 μM, 333.3 μM, 111.1 μM, 37.03 μM, 12.35 μM, 4.11 μM and 1.37 μM are produced. One μl of each of these solutions (or 1 μl of DMSO for the controls) is subsequently transferred into the wells of the assay plate. To each well there is subsequently added 19 μl of a solution of a mixture of adenosine triphosphate (ATP) and ATPγ^33P in the kinase buffer at a concentration of 5.26 μM of total ATP and 78.9 μCi/ml of ^33P. The enzymatic reaction is triggered by adding 10 μl per well of a solution of CDK4/cyclin D1 complex at 250 nM in the kinase buffer, containing 1 mM of dithiothreitol (or 10 μl of kinase buffer containing 1 mM of dithiothreitol for the reaction blanks). At the end of the various additions, the final volume in each well is 100 μl, the final substrate concentration is 1.8 μM, the final inhibitor concentrations are 10 μM, 3.33 μM, 1.11 μM, 0.37 μM, 0.123 μM, 0.041 μM and 0.014 μM (depending on the concentration of the intermediate dilution), the final ATP concentration is 1 μM, the final amount of ^33P is 1.5 μCi/well, and the final concentration of CDK4/cyclin D1 complex is 25 nM.
After all of the reagents have been added, the assay plate is incubated at 30° C. with orbital stirring at 650 rpm. Following incubation, the plate is washed three times with 300 μl per well of PBS buffer (phosphate buffered saline, pH=7.4 with neither calcium nor magnesium, reference 10010-015, Gibco BRL). The incorporation of ^33P into the substrate peptide is measured by scintillation counting using a Packard Topcount.NXT instrument. The inhibitory activity of the products of the invention is evaluated by determining the concentration of inhibitor resulting in a 50% reduction in the enzymatic activity (IC50).

T1 sequence (P11802 whole entry): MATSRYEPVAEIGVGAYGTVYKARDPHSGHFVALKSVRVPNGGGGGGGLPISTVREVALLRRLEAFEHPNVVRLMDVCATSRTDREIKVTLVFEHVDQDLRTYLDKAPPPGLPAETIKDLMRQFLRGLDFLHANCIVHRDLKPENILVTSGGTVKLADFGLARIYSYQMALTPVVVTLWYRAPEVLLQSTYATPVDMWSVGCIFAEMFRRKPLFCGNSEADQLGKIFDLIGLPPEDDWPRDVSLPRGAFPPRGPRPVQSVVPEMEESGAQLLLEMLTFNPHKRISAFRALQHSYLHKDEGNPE
T1 sequence (P24385 whole entry partner): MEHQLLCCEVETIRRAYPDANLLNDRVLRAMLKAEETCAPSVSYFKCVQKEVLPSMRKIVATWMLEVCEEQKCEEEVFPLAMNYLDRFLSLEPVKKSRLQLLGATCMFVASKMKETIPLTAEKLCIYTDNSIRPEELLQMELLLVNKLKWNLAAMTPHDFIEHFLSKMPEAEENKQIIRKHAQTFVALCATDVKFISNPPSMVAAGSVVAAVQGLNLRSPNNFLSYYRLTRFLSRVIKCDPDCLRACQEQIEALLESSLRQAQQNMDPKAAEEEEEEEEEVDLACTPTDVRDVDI

SMILES	IC50 [µM]
O=C(Nc1n[nH]c2c(F)c(-c3ccc(NS(=O)(=O)c4cccc(Cl)c4)cc3)ccc12)c1ccsc1 [Example 38, Thiophene-3-carboxylic acid{6-[4-(3-chloro-benzenesulfonyl-amino)phenyl]-7-fluoro-1H-indazol-3-yl}-amide]	0.419
O=C(Nc1n[nH]c2c(F)c(-c3ccc(NS(=O)(=O)c4cccc5ccccc45)cc3)ccc12)c1ccsc1 [Example 30, Thiophene-3-carboxylic acid{7-fluoro-6-[4-(naphthalene-1-sulfonylamino)-phenyl]-1H-indazol-3-yl}-amide]	0.49
O=C(Nc1n[nH]c2c(F)c(-c3ccc(NS(=O)(=O)c4cccs4)cc3)ccc12)c1ccsc1 [Example 31, Thiophene-3-carboxylic acid{7-fluoro-6-[4-(thiophene-2-sulfonylamino)-phenyl]-1H-indazol-3-yl}-amide]	0.73
O=C(Nc1n[nH]c2c(F)c(-c3ccc(NS(=O)(=O)C4CC4)cc3)ccc12)c1ccsc1 [Example 36, Thiophene-3-carboxylic acid{6-[4-cyclo-propanesulfonyl-aminophenyl)-7-fluoro-1H-indazol-3-yl}-amide]	3.6
O=C(Nc1n[nH]c2c(F)c(-c3ccc(NS(=O)(=O)c4ccccc4)cc3)ccc12)c1ccsc1 [Example 32, Thiophene-3-carboxylic acid[6-(4-benzene-sulfonylamino-phenyl)-7-fluoro-1H-indazol-3-yl]-amide]	0.747
O=C(Nc1n[nH]c2c(F)c(-c3ccc(NS(=O)(=O)c4ccccc4Cl)cc3)ccc12)c1ccsc1 [Example 37, Thiophene-3-carboxylic acid{6-[4-(2-chloro-benzenesulfonyl-amino)phenyl]-7-fluoro-1H-indazol-3-yl}-amide]	0.051
CC(=O)Nc1ccc(S(=O)(=O)Nc2ccc(-c3ccc4c(NC(=O)c5ccsc5)n[nH]c4c3F)cc2)cc1 [Example 33, Thiophene-3-carboxylic acid{6-[4-(4-acetyl-aminobenzene-sulfonylamino)-phenyl]-7-fluoro-1H-indazol-3-yl}-amide]	1.21
CS(=O)(=O)Nc1ccc(-c2ccc3c(NC(=O)c4ccsc4)n[nH]c3c2F)cc1 [Example 34, Thiophene-3-carboxylic acid[7-fluoro-6-(4-methanesulfonyl-aminophenyl)-1H-indazol-3-yl]-amide]	2.09
Cn1cnc(S(=O)(=O)Nc2ccc(-c3ccc4c(NC(=O)c5ccsc5)n[nH]c4c3F)cc2)c1 [Example 39, Thiophene-3-carboxylic acid{7-fluoro-6[4-(1-methyl-1H-imidazole-4-sulfonylamino)-phenyl]-1H-indazol-3-yl}-amide]	3.65
